The subject of assay [1] is HEK-N/F cells. The assay is described as follows: Cell protection from UV irradiation (DNA damage, ethidium homodimer fluorescence). The class given is cell-based, human. The following applies: 35 mJ/cm^2 UVB, Et2 fluorescence (DNA damage). The method, then:
UV irradiation induces DNA damage and DNA-protein connection by increasing active oxygen in cells. When HEK-N/F cells were irradiated by 35 mJ/cm^2 of UVB, DNA chains in nucleus were cut. After uniting the broken chains to ethidium homodimer (Et2), a DNA chain intercalating fluorescent dye, extent of fluorescence was measured to quantify the amount of DNA damage. Particularly, HEK-N/F cells were cultured on serum-free KGM medium (Clonetics), which were inoculated into wells of a 24-well plate by 0.5−4×10^4 cells/2 cm^2. Then, the cells were cultured for 18 hours, after which a sample was treated thereto for 2 hours. […] The cells exposed on UV were further cultured for 1-7 hours, and then, […] ethidium homodimer (Et2, Millipore) was added. 30 minutes later, fluorescence was measured with Millipore microplate fluorometer Cytofluor 2350 (excitation: 485 nm, emission: 645 nm).

Assay [2] concerns HEK-N/F cells. Briefly: Prolongation of life span of a cell. The following applies: 3 μg/ml during culture. The class given is cell-based, human. The method, then: HEK-N/F cells were obtained from foreskin of a newborn baby after its fibroblasts, another major component of skin, were treated with uridine bromide. Then, the cells were cultured in DMEM medium supplemented with 10 FBS. HEK-N/F cells were diluted consecutively at the ratio of 1:4 during the culture. Before being treated with samples, the cells were grown up to 3 PDL (population doubling level). During the culture, each sample was administered by […]. Medium was replaced every three days by fresh medium supplemented with a culture solution containing the equal concentration of the sample.

The test system of assay [3] is back skin of SKH-1 hairless mouse. The assay is described as follows: Protection of skin tissues from UVB irradiation in hairless mice. The class given is in vivo. The protocol:
5-6 week old female hairless mice (SKH-hr 1) were raised for 14 days at 24±2° C. with 50±10% relative humidity and 12 hour day/night cycle. 30-60 minutes before the experiment, a sample was hyperdermically injected on 5 spots of the mice and the backs of the mice were irradiated by UVB. 5 mice per each group were put in a cage (20×15×5 cm) and UVB irradiation was performed using a UV lamp (HP-15M, 280-400 nm, max. 312 nm; Atto Co., Japan) at 15 cm distance by 15 kJ/m^2. After the completion of UV irradiation for 24 hours, back skin was cut and stored at −70° C. until peroxidation was measured.
UVB irradiation causes serious lipid peroxidation in skin tissues, so measurement of the peroxided lipid content might lead to the measurement of skin damages. Particularly, UVB was irradiated on the back skin of SKH-1 hairless mouse. 48 hours later, the back skin tissues were cut to measure lipid peroxidation by thiobarbituric acid (TBA) method. The back skin of the mouse was put in a 10×50 mM K-P buffer solution for homogenation.
Hydrogen peroxidation was also investigated. The frozen back skin section was put in 0.1 M Tris-HCl buffer solution (pH 7.5) containing 1 mg/ml of glucose and 1 mg/ml diaminobenzidine (DAB), which was cultured at 37° C. for 5-6 hours. After being washed with distilled water, the solution was stained with 2% methyl green for 60 minutes. Nucleus stained blue and DAB peroxidase (brown) were observed under a microscope.

Assay [4] relates to HEK-N/F cells. The assay is described as follows: Protection of cells from oxidative damage induced by t-butylhydroperoxide. The class given is cell-based, human. The following applies: 1.5 mM t-butylhydroperoxide 3 hours. The protocol: t-butylhydroperoxide is metabolized into a free radical intermediate as it comes in a cell, so that it causes lipid peroxidation, resulting in cell damage. This phenomenon is similar to that caused by oxidataive stress accumulated in cells and tissues. […] HEK-N/F, an epidermal cell line of a newborn baby, was treated with 1.5 mM of t-butylhydroxyperoxide for 3 hours.

Assay [5] concerns HEK-N/F cells. The assay is described as follows: Telomere length / maximum PDL (Southern blot of TRFs). The class given is cell-based, human. The method, then:
In the above Example 8, an extract of […] chinensis and active ingredients separated from the same were confirmed to have an effect of prolongation of life span of a cell. Thus, in this example, relation between the effect of prolongation of life span and the length of a telomere was investigated. Particularly, genomic DNA was extracted from each cell of different ages by using a nucleic acid extraction kit (Isoquick Nucleic Acid Extraction kit, ORCA Research Inc.), which was stored at 4° C. after being dissolved in Tris-EDTA solution (10 mM Tris-HCl, 1 mM EDTA, pH 8.0). 2 μl of 10×H buffer solution (TaKaRa), 2 μl of the extracted genomic DNA solution and distilled water were all mixed in a 1.5 ml tube, making final volume 19 μl. Then, 1 μl at of restriction enzyme […]) was added thereto. […] Then, the gel was immersed in 0.25 N HCl, followed by shaking for 15 minutes. The gel was washed twice with distilled water. This gel was dipped into denaturing solution (0.2 N NaOH, 0.6 M NaCl), followed by shaking for 25 minutes at room temperature. And then, the gel was washed three times with distilled water. On a blotting device filled with 6×SSC, nitrocellulose membrane (Optitran BA-S 85, Schleicher & Schuel), 3 mm filter paper, paper towel, glass plate and weight (2 kg) were loaded in that order, followed by blotting overnight. After the blotting was finished, membrane filter was soaked in 3×SSC, and then water was discarded smoothly. The positions of the wells on the membrane were marked. The membrane was placed between filter papers, followed by baking at 80° C. for overnight. […] After being dried, the membrane was covered with wrap and set in a cassette on which X-ray film (Scientific Imaging Film, Kodak) and intensifying screen were attached. Autoradiography was performed at -80° C. for overnight. Based on the developed film and the location of the membrane, the positions of the wells were marked by a magic pen. The density peak of TRFs was detected by a laser densitometer (UltroScan XL, Pharmacia) and its mobility was calculated.

Each structure is given as a SMILES string.

With `Oc1cc(O)cc(/C=C/c2ccc(O)c(O)c2)c1` [Chemical Formula 5, piceatannol], the “fluorescence lower than that of a control” value in assay [1] amounted to 66.7%. In assay [2], the “average life span of a cell” value came to 76 days and the “life span, times as long as that of a control” value was 2.1 times. For the same molecule, the “TBARS (nmol/mg protein)” value in assay [3] (treating amount 10 mg/kg + UVB irradiation) was found to be 0.16 ± 0.08 nmol/mg protein. In addition, the “TBARS (nmol/mg protein)” value in assay [3] (treating amount 30 mg/kg + UVB irradiation) was found to be 0.07 ± 0.03 nmol/mg protein. For the same molecule, the “Cell survival rate (%)” value in assay [4] amounted to 84.7±6.9%. Moreover, in assay [4] (compound 50.0 µg/ml), the “TBARS (pmol/mg protein)” value came out at 520.2 ± 60.7 pmol/mg protein. For the same molecule, in assay [5], the “telomere shortening speed delayed, comparing to control” value is 2.1 times. Besides, the “maximum PDL” value in assay [5] (control 14.1) is on record as 29.9.

The values above are taken from patent US7763287B2, “Extract of Cercis chinensis having anti-oxidant activity and anti-aging activity, and cosmetical composition containing the extract for anti-oxidation, skin-aging protection and wrinkle improvement” (Hankook Pharm. Co., Inc., priority 2002, dated 2010).
